Assay results published in ChEMBL document CHEMBL5257080, “Optimization of physicochemical properties of pyrrolidine GPR40 AgoPAMs results in a differentiated profile with improved pharmacokinetics and reduced off-target activities” (Bioorg Med Chem, 2023).
≈ marks a conversion by molar mass, not a printed value. Calls of active or inactive are those of the source. The calls are words filed in the database; no cut-off is given here.

Legend:
[1] = Solubility of the compound in FeSSIF at pH 5; format: ADME
[2] = Tmax in rat at 40 mg/kg bid; format: ADME, organism-based; conditions: in vivo
[3] = Solubility in phosphate buffer at pH 6.5; format: physicochemical
[4] = Toxicity in rat assessed as NOAEL by measuring AUC (0 to 24 hrs) measured for 28 days; conditions: in vivo, time 28 day
Cytochrome P450 2C9 = Cytochrome P450 2C9 (Homo sapiens, UniProt P11712); assay: Inhibition of CYP2C9 in human liver microsomes; format: ADME, Microsome
[5] = Cmax in rat at 160 mg/kg bid; format: ADME, organism-based; set-up: dose 160 mg/kg; conditions: in vivo
Cytochrome P450 3A4 = Cytochrome P450 3A4 (Homo sapiens, UniProt P08684); assay: Inhibition of CYP3A4 in human liver microsomes; format: ADME, Microsome
[6] = AUC (0 to 24 hrs) in rat at 150 mg/kg, po bid; format: ADME, organism-based; set-up: dose 150 mg/kg, route po; conditions: in vivo
[7] = Toxicity in Sprague-Dawley rat assessed as decrease in islet size at 300 mg/kg, po measured for 1 months; format: organism-based; set-up: scale not given: the % may be the effect or the level left; conditions: in vivo, 730 h
Cytochrome P450 2B6 = target: T1, Cytochrome P450 2B6 (Homo sapiens, UniProt P20813); assay: Inhibition of CYP2B6 in human liver microsomes; format: ADME, Microsome
T1 sequence (P20813 whole entry): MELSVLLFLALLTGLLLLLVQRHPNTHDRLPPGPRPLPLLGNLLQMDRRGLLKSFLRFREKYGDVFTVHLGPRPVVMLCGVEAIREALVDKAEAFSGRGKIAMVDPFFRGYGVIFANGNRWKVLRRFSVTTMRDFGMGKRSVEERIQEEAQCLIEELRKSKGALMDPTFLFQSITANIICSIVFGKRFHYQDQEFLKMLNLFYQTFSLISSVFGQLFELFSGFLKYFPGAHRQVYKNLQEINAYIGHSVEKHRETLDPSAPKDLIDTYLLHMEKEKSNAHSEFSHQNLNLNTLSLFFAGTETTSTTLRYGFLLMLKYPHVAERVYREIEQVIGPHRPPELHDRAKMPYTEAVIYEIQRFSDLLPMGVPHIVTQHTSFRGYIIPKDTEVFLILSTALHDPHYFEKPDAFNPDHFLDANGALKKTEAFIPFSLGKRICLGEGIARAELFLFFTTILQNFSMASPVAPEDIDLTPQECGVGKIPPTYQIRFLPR

[8] = Permeability of compound across apical to basolateral side in dog MDCK cells; format: ADME, cell-based, Canis lupus familiaris; conditions: read-out: permeability
Cytochrome P450 2C8 = target: T2, Cytochrome P450 2C8 (Homo sapiens, UniProt P10632); assay: Inhibition of CYP2C8 in human liver microsomes; format: ADME, Microsome
T2 sequence (P10632 whole entry): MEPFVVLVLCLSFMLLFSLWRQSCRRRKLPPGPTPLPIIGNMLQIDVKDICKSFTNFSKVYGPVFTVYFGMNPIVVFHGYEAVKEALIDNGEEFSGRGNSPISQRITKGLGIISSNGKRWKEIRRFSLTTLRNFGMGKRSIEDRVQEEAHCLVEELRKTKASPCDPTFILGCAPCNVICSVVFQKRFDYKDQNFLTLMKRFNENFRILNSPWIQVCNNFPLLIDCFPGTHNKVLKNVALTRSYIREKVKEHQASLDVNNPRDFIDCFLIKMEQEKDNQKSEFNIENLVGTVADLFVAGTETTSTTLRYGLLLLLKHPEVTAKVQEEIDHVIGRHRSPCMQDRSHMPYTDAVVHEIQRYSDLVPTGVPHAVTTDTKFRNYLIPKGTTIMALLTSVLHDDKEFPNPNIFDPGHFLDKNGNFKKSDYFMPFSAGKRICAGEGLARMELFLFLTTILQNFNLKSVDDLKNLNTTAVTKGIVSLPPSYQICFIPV

[9] = AUC (0 to 24 hrs) in rat at 160 mg/kg bid; format: ADME, organism-based; set-up: dose 160 mg/kg; conditions: in vivo
[10] = Tmax in rat at 160 mg/kg bid; format: ADME, organism-based; conditions: in vivo
Rattus norvegicus [11] = assay: Hyperglycemic activity in Sprague-Dawley rat assessed as effect on blood glucose level at 150 mg/kg, qd by glucometer; format: functional, organism-based
[12] = Toxicity in Sprague-Dawley rat assessed as decrease in islet number at 300 mg/kg, po measured for 1 months; format: organism-based; conditions: in vivo, 730 h
[13] = Toxicity in Sprague-Dawley rat assessed as effect on pancrease at AUC measured for 1 months; conditions: in vivo, 730 h
[14] = Cmax in rat at 40 mg/kg bid; format: ADME, organism-based; set-up: dose 40 mg/kg; conditions: in vivo
[15] = Cmax in rat at 400 mg/kg bid; format: ADME, organism-based; set-up: dose 400 mg/kg; conditions: in vivo
Cytochrome P450 2C19 = Cytochrome P450 2C19 (Homo sapiens, UniProt P33261); assay: Inhibition of CYP2C19 in human liver microsomes; format: ADME, Microsome
[16] = Solubility of the compound in FeSSIF at pH 6.5; format: ADME
[17] = Toxicity in cynomolgus monkey assessed as effect on pancrease at 30 mg/kg, po measured for 1 months; format: organism-based, Macaca fascicularis; conditions: in vivo, 730 h
[18] = Toxicity in Sprague-Dawley rat assessed as effect on pancrease at 300 mg/kg, po measured for 1 months; format: organism-based; conditions: in vivo, 730 h
[19] = Toxicity in Sprague-Dawley rat assessed as islet cell cytoplasmic alteration at 60 mg/kg, po measured for 1 months; format: organism-based; conditions: in vivo, 730 h
[20] = AUC (0 to 24 hrs) in rat at 400 mg/kg bid; format: ADME, organism-based; set-up: dose 400 mg/kg; conditions: in vivo
[21] = target: Free fatty acid receptor 1 (Homo sapiens, UniProt O14842); assay: Positive allosteric modulation of human GPR40 expressed in HEK293 cells assessed as cAMP accumulation; format: cell-based
Rattus norvegicus [22] = assay: Anti-hyperglycemic activity against Sprague-Dawley rat assessed as reduction in plasma glucose AUC at 0.3 mg/kg, po measured for 20 to 120 mins by OGTT analysis; format: functional, organism-based; conditions: time lower 20.0 min, time upper […]
[23] = Tmax in rat at 400 mg/kg bid; format: ADME, organism-based; conditions: in vivo
[24] = AUC (0 to 24 hrs) in rat at 40 mg/kg bid; format: ADME, organism-based; set-up: dose 40 mg/kg; conditions: in vivo
Cytochrome P450 2D6 = Cytochrome P450 2D6 (Homo sapiens, UniProt P10635); assay: Inhibition of CYP2D6 in human liver microsomes; format: ADME, Microsome
[25] = Solubility of the compound in FaSSIF at pH 6.5; format: ADME

Sequence of Cytochrome P450 2D6 (P10635 whole entry): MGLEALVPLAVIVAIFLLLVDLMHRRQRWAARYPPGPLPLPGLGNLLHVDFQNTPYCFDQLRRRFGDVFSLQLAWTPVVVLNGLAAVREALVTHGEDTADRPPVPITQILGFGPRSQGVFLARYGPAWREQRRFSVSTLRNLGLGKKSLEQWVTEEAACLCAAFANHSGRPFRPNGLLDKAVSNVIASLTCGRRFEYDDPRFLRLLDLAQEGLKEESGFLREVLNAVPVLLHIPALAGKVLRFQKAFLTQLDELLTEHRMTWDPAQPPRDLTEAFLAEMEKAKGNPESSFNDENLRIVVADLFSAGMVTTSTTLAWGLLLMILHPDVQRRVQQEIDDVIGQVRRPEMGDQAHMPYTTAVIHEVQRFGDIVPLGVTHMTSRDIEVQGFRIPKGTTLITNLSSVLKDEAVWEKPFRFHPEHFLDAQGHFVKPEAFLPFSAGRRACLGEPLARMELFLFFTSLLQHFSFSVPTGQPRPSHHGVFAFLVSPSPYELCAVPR
Sequence of Cytochrome P450 2C9 (P11712 whole entry): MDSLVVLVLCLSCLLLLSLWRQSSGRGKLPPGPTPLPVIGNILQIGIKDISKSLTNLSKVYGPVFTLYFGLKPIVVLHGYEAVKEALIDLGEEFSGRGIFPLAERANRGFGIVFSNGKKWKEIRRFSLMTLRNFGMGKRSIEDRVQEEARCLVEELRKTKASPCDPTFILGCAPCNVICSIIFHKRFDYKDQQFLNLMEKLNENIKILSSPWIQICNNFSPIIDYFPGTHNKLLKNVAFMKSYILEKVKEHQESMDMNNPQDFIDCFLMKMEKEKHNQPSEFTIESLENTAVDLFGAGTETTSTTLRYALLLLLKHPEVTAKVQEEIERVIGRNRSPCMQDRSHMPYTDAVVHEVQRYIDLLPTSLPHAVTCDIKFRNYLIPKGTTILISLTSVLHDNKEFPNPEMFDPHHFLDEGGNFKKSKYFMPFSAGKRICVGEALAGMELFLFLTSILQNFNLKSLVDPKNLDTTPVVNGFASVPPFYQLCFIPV
Sequence of Free fatty acid receptor 1 (O14842 whole entry): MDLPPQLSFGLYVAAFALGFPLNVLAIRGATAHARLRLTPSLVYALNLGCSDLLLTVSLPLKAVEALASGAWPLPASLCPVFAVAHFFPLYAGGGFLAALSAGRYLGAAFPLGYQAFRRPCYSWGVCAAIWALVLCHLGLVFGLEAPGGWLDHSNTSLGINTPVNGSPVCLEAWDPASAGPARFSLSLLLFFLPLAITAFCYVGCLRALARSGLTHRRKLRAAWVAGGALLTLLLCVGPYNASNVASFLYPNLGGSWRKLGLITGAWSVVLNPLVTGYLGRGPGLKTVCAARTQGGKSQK
Sequence of Cytochrome P450 3A4 (P08684 whole entry): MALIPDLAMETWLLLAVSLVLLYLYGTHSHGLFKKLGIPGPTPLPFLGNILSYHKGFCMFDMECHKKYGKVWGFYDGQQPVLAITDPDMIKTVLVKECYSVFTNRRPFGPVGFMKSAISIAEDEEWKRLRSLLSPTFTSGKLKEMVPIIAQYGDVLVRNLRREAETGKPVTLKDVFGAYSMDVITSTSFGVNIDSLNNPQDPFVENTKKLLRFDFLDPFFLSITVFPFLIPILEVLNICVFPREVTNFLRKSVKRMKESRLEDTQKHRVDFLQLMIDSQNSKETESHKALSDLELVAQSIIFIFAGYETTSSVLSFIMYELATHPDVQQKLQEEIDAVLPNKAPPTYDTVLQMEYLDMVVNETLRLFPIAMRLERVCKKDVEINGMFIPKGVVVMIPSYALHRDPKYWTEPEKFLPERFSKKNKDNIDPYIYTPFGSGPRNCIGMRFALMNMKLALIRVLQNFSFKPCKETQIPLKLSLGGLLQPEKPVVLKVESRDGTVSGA
Sequence of Cytochrome P450 2C19 (P33261 whole entry): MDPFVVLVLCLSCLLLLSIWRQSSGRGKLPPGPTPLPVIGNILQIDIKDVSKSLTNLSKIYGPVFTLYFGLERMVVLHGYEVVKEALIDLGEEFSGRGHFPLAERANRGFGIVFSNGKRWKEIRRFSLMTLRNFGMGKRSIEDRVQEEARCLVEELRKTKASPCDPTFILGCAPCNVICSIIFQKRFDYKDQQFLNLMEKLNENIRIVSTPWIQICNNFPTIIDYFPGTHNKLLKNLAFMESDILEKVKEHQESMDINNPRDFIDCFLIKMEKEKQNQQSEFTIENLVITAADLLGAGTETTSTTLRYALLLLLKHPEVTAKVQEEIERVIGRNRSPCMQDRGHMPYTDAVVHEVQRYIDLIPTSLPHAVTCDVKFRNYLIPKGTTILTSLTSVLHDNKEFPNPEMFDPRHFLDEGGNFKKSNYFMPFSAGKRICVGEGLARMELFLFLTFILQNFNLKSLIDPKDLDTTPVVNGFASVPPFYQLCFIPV

Compound: COc1cc(N2CC[C@@H](Oc3ccc(N4N=C(C(F)(F)F)[C@@H](C)[C@@H]4CC(=O)O)cc3)[C@H](C)C2)c(Cl)cn1
- solubility [1]: 8 µg/mL (≈ 14.8 µM)
- Tmax [2]: 8 h
- solubility [3]: 1 µg/mL (≈ 1.85 µM)
- AUC at […] [4]: 404 µM·h
- IC50 (Cytochrome P450 2C9): 14 µM
- Cmax [5]: 106 µM
- IC50 (Cytochrome P450 3A4): 3.4 µM
- AUC [6]: 557 µM·h
- Activity [7]: 50%
- IC50 (Cytochrome P450 2B6): 8.1 µM
- Papp A→B [8]: 14.2 ×10⁻⁶ cm/s
- IC50 (Cytochrome P450 2C8): 1.7 µM
- AUC [9]: 1100 µM·h
- Tmax [10]: 8 h
- Activity (Rattus norvegicus [11]): Active
- Activity [12]: Toxic
- Activity [13]: Non-Toxic
- Cmax [14]: 64 µM
- Cmax [15]: 271 µM
- IC50 (Cytochrome P450 2C19): 38 µM
- solubility [16]: 59 µg/mL (≈ 109 µM)
- Activity [17]: Non-Toxic
- Activity [18]: Non-Toxic
- Activity [19]: Toxic
- AUC [20]: 3370 µM·h
- EC50 [21]: 3.6 µM
- Activity (Rattus norvegicus [22]): inactive
- Tmax [23]: 8 h
- AUC [24]: 549 µM·h
- IC50 (Cytochrome P450 2D6): 40 µM
- solubility [25]: 9 µg/mL (≈ 16.6 µM)
